Experimental data reported in patent US20090247520A1, “INHIBITORS OF ANTIGEN RECEPTOR-INDUCED NF-kappa B ACTIVATION” (The Burnham Institute for Medical Research, priority 2008, published 2009).
Read-outs that look alike come from different tables or passages of the source.

Legend:
353 protein kinases = assay: KINOMEscan kinome screen, panel of 353 protein kinases; format: binding, human; details: 10 μM, of 353 protein kinases surveyed
Excerpt: CID-2858522 is not a potent protein kinase inhibitor. Protein kinases play critical roles in NF-κB activation. PKCs are proximal kinases in the NF-κB pathways activated by PMA/Ionomycin and by T- and B-cell antigen receptors, while the IKKs are distal kinases operating in the terminal segments of these and other NF-κB activation pathways. We therefore tested whether CID-2858522 inhibits members of these kinase families by in vitro kinase assays. For these experiments, we tested PKC-beta and PKC-theta (the PKC family members implicated in TCR/BCR signaling), and IKK-beta (a component of the IKK complex) (FIG. 6). […] In addition to assessing these three kinases by conventional in vitro kinase assays, a kinome screen was performed using a high throughput screening method, KINOMEscan™, which is an active-site dependent competition binding assay in which human kinases of interest are fused to a proprietary tag (Ambit). The amount of kinase bound to an immobilized, active-site directed ligand is measured in the presence and absence of the test compound. […] Thus, CID-2858522 inhibits none of the protein kinases previously implicated in regulating NF-κB.
In Vitro Kinase Assays. PKC-beta, PKC-theta and IKK-beta in vitro kinase assays were performed using the HTScan Kinase Assay Kit (Cell Signaling, Danvers, Mass.) according to manufacturer's protocols. […]

[1] = tested on: PMA/Ionomycin-induced NF-κB reporter gene activity; assay: NF-κB luciferase reporter gene assay, PMA/Ionomycin-stimulated HEK293-NF-κB-luc cells; format: cell-based
Excerpt: The strategy for compound library screening entailed using phorbol ester (phorbol myristic acetate [PMA]) and Ca^2+-ionophore Ionomycin to achieve PKC activation, mimicking the initiating events in the antigen receptor pathway. For convenience, we used HEK293 epithelial cells, in which it has previously been shown by siRNA-mediated gene silencing and transfection of dominant-negative mutants that PMA/Ionomycin-induced NF-κB activation is dependent on CARMA1, Bcl-10, and MALT. HEK293 cells were stably transfected with a luciferase reporter gene driven by a NF-κB responsive promoter, and the responsiveness of this integrated promoter to various NF-κB inducing stimuli was confirmed, including PMA/Ionomycin and TNF. Using these cells, 96- and 384-well plate-based high throughput screening (HTS) assays were established, with good assay performance characteristics (Z′>0.5) (PubChem AID=1384). We initially screened 53,280 chemical compounds at an average concentration of 5 μM, of which 519 primary hits were obtained (based on cut-off of 50% inhibition). Of these, 248 confirmed upon repeat testing (FIG. 1).
Cell engineering. HEK293 cells were co-transfected with pUC13-4xNFκB-Luc and p-TK-puromycin-resistance plasmids. Stable clones were selected by culture in Dulbecco's Modified Eagle's Media (InVitrogen) supplemented with 10% heat-inactivated fetal bovine serum (FBS) (Hyclone), 1% v/v penicillin-streptomycin (InVitrogen) containing 1 μg/mL puromycin. Individual clones were tested for responsiveness to PMA/Ionomycin- and to TNF-induced NF-κB reporter gene activity, and a clone was selected for HTS.
HTS. NF-κB-luciferase expressing HEK293 cells were seeded at […] per well in white 96 well plates (Greiner Bio-One) in 90 μl of DMEM and incubated overnight. 10 μl of compound-containing solution was added to each well (final 1.5 μg/mL in 1% DMSO) using a liquid handler (Biomek™ FX; Beckman Coulter). After 2 h incubation, cells were stimulated using 11 μl of a PMA (final 100 ng/mL; Calbiochem) and ionomycin (final 50 ng/mL; Calbiochem) in DMEM. Cell plates were incubated for 16 h before media was removed and 40 μl of 0.5× passive lysis buffer (Promega Corp.) was added to cell plates. Plates were allowed to stand at room temperature for at least 15 minutes before adding 40 μl of 0.125× luciferin substrate (Promega Corp.) to each well. Plates were analyzed within 30 seconds with a Criterion Analyst™ using the luminescence method (0.1 second read/well).
Several compounds synthesized by the methods described herein were tested for their efficacy at inhibiting Nf-κB activation.

purified luciferase = molecular target: T1, purified luciferase (Photinus pyralis, UniProt P08659); assay: Luciferase inhibition counter screen, in vitro enzymatic assay; format: biochemical; details: not shown
T1 construct: purchased Perkin Elmer
Experimental: Counter Screening and Secondary Assays. To counter-screen for inhibitors of the TNF pathway, HEK293-NFκB-Luc cells were seeded at 10^5 cells per well in 90 μL medium in white 96-well plates (Greiner Bio-One) and cultured overnight, before adding compounds (5 μL in medium) to cells. After 2 h incubation, 5 μL TNF (200 ng/mL) (R&D Systems) was added (final concentration 10 ng/mL) and cells were incubated for 16 h. Luciferase activity was measured using Britelite kit (Perkin Elmer). To counter-screen for inhibitors of NF-κB induced by TLR4, CD40, NOD1, NOD2, cIAP2/MALT, or XIAP/TAB, the 293-NF-κB-luc cells cultured in 96 well plates as above were pretreated with compounds for 2 h and then transfected using Lipofectamine 2000 with various plasmids including pcDNA3 (“empty vector” control) or plasmids encoding CD4-TLR4, CD40, NOD1, NOD2, cIAP2/MALT, XIAP/TAB, using 0.2 μL of transfection reagent containing 100 ng DNA per well. Cells were cultured in medium containing CID-2858522 or other compounds and luciferase activity was measured 48 h later. […] Reactions were then initiated by addition of 50 μL 160 nM ATP (Sigma) in PBS and luciferase activity was measured 2 h later using a luminometer (LJL Biosystems, Sunnyvale, Calif.).

[2] = tested on: caspase-8 p43/41 processing intermediate; assay: Caspase-8 p43/41 processing in HEK293 cells after PMA/Ion; format: cell-based; details: data not shown
Excerpt: Caspase-8 plays an essential role in antigen receptor-mediated NF-κB activation. It was recently reported that MALT1 interacts with Caspase-8 and activates this protease upon antigen receptor activation. […] We then examined if CID-2858522 affected the pathway at this point. PMA induced significant MALT1-caspase-8 interaction in HEK293 cells over-expressing Flag-MALT1 and Caspase-8. […] The caspase-8 p43/41 processing intermediate was generated in HEK293 cells after PMA/Ion treatment. […] We then assessed the effects of CID-2858522 on PMA-induced proteolytic processing of c-FLIP, a Caspase-8-mediated event recently shown to be required for antigen receptor mediated NF-κB activation.

T1 sequence (P08659 whole entry, species assumed): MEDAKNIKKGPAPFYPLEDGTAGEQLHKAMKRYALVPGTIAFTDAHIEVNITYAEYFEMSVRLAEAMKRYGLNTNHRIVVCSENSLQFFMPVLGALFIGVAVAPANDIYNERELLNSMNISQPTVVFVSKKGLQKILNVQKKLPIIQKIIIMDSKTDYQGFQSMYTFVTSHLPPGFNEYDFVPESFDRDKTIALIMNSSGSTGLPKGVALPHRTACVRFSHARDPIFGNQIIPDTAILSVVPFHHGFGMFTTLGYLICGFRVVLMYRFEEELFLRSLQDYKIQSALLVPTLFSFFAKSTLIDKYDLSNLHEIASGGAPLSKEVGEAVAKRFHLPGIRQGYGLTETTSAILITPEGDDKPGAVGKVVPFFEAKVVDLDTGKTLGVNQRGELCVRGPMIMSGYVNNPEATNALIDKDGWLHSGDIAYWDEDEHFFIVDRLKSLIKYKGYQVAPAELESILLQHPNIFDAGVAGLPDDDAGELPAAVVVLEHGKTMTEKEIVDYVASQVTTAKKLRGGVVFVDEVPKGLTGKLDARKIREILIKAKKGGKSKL

| Structure (SMILES) | number of protein kinases suppressed by >50% (353 protein kinases) | IC50 ([1]; Homo sapiens, HEK293 cell line, PMA/Ionomycin, read-out: IC50, suppression of NF-κB reporter gene activity) [nM] | IC50 ([1]; Homo sapiens, PMA/Ionomycin / PKC activators, HEK293, read-out: IC50, NF-κB reporter gene assay (cellular potency)) [nM] | concentration at which maximum inhibition of NF-κB reporter is achieved ([1]; PMA/Ionomycin, HEK293) [µM] | IC50 ([1]; Table II, read-out: IC50, Inhibition of antigen receptor-mediated Nf-κB) [nM] | inhibition of luciferase activity (purified luciferase) | inhibition of caspase-8 p43/41 processing intermediate [2] |
| --- | --- | --- | --- | --- | --- | --- | --- |
| Cc1cc2nc(NCCCO)n(CC(=O)c3cc(C(C)(C)C)c(O)c(C(C)(C)C)c3)c2cc1C [Compound 1, 2-(2-(3-Hydroxypropylamino)-5,6-dimethyl-1H-benzo[d]imidazol-1-yl)-1-(3,5-di-tert-butyl-4-hydroxyphenyl)ethanone] | 3 | ~70 | < 100 | 0.25 to 0.5 | 70 | did not inhibit |  |
| CN(C)CCCn1cc(C2=C(c3c[nH]c4ccccc34)C(=O)NC2=O)c2ccccc21 [Bisindolylmaleimide I, reference compound] |  |  |  |  |  |  | inhibited |
